In data set [1] the test system is LSD1/EGFR relevant downstream signaling pathways. In words: Western blot of signaling pathway proteins in the H1975 CDX model. In kind it is in vivo, nude mice. The protocol:
Cells were lysed with lysis buffer (1.5 M NaCl, 1 M Hepes, 20% NP40, 0.1 M Na pyrophosphate, 0.1 M NaF, 0.1 M Na3VO4, 0.2 M glycerol phosphate) on ice for 30 min and then centrifuged at 12,000 r/min for 15 min at 4 °C. Protein samples were loaded into 12% SDS-PAGE, then separated by running for different voltage, and transferred onto PVDF membranes (Millipore, MA, USA). The membranes were blocked with 5% non-fat milk for 2 h and then incubated overnight at 4 °C or at room temperature for 2 h with the primary antibody and 1 h at room temperature with secondary antibody. Signals were detected using Luminol substrate solution (Millipore, MA, USA).

Data set [2] concerns the target T1, LSD1 (Homo sapiens, UniProt O60341). In words: SPR binding assay (Biacore T200). Here is the method: Surface plasmon resonance (SPR) was employed to evaluate direct binding between compounds and LSD1 using Biacore T200 optical biosensor (Biacore Life Sciences, GE Healthcare). LSD1 was covalently attached to CM5 sensor chip via amine coupling. Binding experiments were conducted at 15 °C in a buffer containing 10 mM HEPES (pH 7.4), 150 mM NaCl, 1% DMSO, and 0.05% Tween, with a flow rate of 30 μL/min. Compounds were serially diluted in the same buffer and injected over the prepared surfaces for 15–25 s at increasing concentrations. Sensorgrams were corrected by subtracting signals from both an untreated reference channel and blank injections. Data analysis was performed using Biacore T200 evaluation software (GE Healthcare).
On the technique in general: SPR reads the build-up and loss of mass on a sensor chip optically.

Data set [3] relates to H1975 cells-derived xenograft (CDX). Put plainly: H1975 cell-derived xenograft (CDX) mouse model, tumor formation. In kind it is in vivo, nude mice. The note with it: 75 and 150 mg/kg i.p. every two days, compared to control group. The protocol:
(§1) Nude mice (nu/nu, female, 4–6-week-old) were purchased from Charles River (Beijing, China) and subcutaneously injected with 2 × 10^6 H1975 cells harboring on the right flank. Tumor growth was recorded by measurement of two perpendicular diameters using the equation: π/6 × length × width^2. To explore the effect of L-1 on tumorigenicity in lung cancer, when tumor volumes reached approximately 50 mm^3, mice received either vehicle control, L-1 (75 mg/kg) and L-1 (150 mg/kg), and they were administered every two days by i.p. injection. The mice were sacrificed, and the tumors were excised, imaged and weighed after inhibitor treatments. Statistical analyses have been done by comparison in relation to the control group with a two-tailed unpaired Student’s t test. The animal experiments were performed according to the institutional ethical guidelines approved by the Laboratory Animal Ethics Committee Nankai University.

Data set [4] concerns H1975 cells (with EGFR mutant). In words: Cell proliferation assay (cell number counting), H1975. In kind it is cell-based. Here is the method:
(§2) Lung cancer H460, H1299, PC9, and H1975 cells were purchased from Procell (Wuhan, China) and cultured in RPMI-1640 medium (Thermo Fisher Scientific, MA, USA) supplemented with 10% fetal bovine serum (FBS, ExCell Bio, Shanghai, China). For cell proliferation assay, the cells were seeded in a 24-well plate (0.5 × 10^4 cells/well), then treated with L-1 with increasing concentrations (0, 2.5, 5, 10, 20, 40 μM) or vehicle alone. Cell numbers were counted using try-pan blue exclusion on the fourth day.

Data set [5] in a line: Body weight of H1975 xenograft nude mice. In kind it is in vivo. The following applies: 75 and 150 mg/kg i.p. every two days. The protocol:
as §1

Another data set deals with Ki67. In words: Ki67 immunohistochemical staining of CDX tumors. In kind it is in vivo, nude mice. The following applies: CDX tumor, L-1 treatment group. The protocol: Immunohistochemistry was performed on paraffin-embedded sections. Tissue sections were dewaxed and rehydrated using standard protocol. Antigen retrieval was performed by boiling samples in citrate buffer for 45 min. Endogenous peroxidase activity was inhibited by using 3% hydrogen peroxidase. Sections were blocked in 3% BSA in PBS and incubated in primary antibody (Ki67, CST, MA, USA) overnight at 4 °C. Then the secondary antibody (Goat anti-rabbit IgG (H + L) HRP, Bioworld, OH, USA) was incubated at room temperature for 1.5 h and developed using DAB. Sections were counterstained with hematoxylin.

The target of data set [6] is triple-mutant EGFR (L858R/T790M/C797S) (Homo sapiens, UniProt P00533, C797S/L858R/T790M). In words: EGFR kinase assay (HTRF), triple mutant. In kind it is biochemical. Here is the method:
The biological experiments of inhibiting the activity of EGFR by test compounds were also performed by Pharmaron (Beijing). To conduct the kinase assay, the following steps were followed:
% Inhibition is calculated as follow: %Inhibition=1−SINGALcmpd−SINGALave−pc/SINGALave−vc−SINGALave−pc×100
SINGALcmpd = singal for compound being tested
SINGALave_pc = singal for positive controls
SINGALave_vc = singal for vehicle controls
(In general: TR-FRET usually uses a lanthanide donor and a delayed reading to cut background.)

Data set [7] relates to H1299 cells (with EGFR wild type). In words: Cell proliferation assay (cell number counting), H1299. In kind it is cell-based. The note with it: 0-40 μM, counted on the fourth day. The protocol: as §2
Data set [8] has as its target T1, LSD1. Put plainly: LSD1 enzymatic assay.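 For Bottom: percent inhibition of LSD1 activity from the fitted dose-response curve.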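 For Top: percent inhibition of LSD1 activity from the fitted dose-response curve.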 In kind it is biochemical. The protocol:
A total of 12 compounds were purchased from J&K Scientific Ltd. (Shanghai, China). The biological experiments of inhibiting the enzymatic activity of LSD1 by 12 test compounds were conducted by Pharmaron (Beijing, China). Each compound was serially diluted 4-fold in 100% dimethyl sulfoxide (DMSO) from a starting DMSO stock concentration of 20 mM to obtain 10 concentration doses. Seclidemstat was used as a positive control. The diluted compounds were added to the LSD1 assay buffer (50 mM Tris-HCl, pH 7.5, and 1% DMSO) and incubated with LSD1 for 30 min at room temperature. The peptide substrate was then added to initiate the reaction, and the mixture was further incubated for 60 min at room temperature. The reaction was stopped by adding the stop solution, followed by the addition of the detection solution containing protein-A-Eu, streptavidin-d2, and anti-Histone H3 (dimethyl K9) antibody. […] The IC50 was calculated using a nonlinear regression (dose response – variable slope) by fitting the inhibition ratio and log of compound concentrations using Graphpad 8.0.

Data set [9] has as its system H460 cells (with EGFR wild type). In words: Cell proliferation assay (cell number counting), H460. In kind it is cell-based. The note with it: 0-40 μM, counted on the fourth day. The protocol: as §2
For data set [10], the system named is BaF3 cells stably expressing EGFR (L858R/T790M/C797S). In words: BaF3 cell assay (CTG luminescence). The note with it: Mus musculus, BaF3, read-out: BaF3 cell assay IC50 (μM) L858R/T790M/C797S.
Experimental: The following steps were followed for cell culture and compound treatment:
% Inhibition is calculated as follow: %Inhibition=1−LUMcmpd−LUMave−pc/LUMave−vc−LUMave−pc×100
LUMcmpd = LUM for compound being tested
LUMave_pc = Average LUM for positive controls (10 μM Control Compound)
LUMave_vc = Average LUM for vehicle controls (0.1% DMSO)
Data set [11] has as its system PC9 cells (with EGFR mutant). In words: Cell proliferation assay (cell number counting), PC9. In kind it is cell-based. Here is the method:
as §2

In a further data set the test system is EGFR wild-type cells. On the set-up: method as in Hu et al. [61]. The note with it: ref Hu et al. [61]; cited from earlier work.
For the next data set, the system named is EGFR-mutant NSCLC cells. On the set-up: method as in Hu et al. [61]. The following applies: ref Hu et al. [61]; cited from earlier work.
Where [12] appears, read: 0-40 μM, counted on the fourth day.
The mark [13] stands for this setting: LSD1 knockdown compared to control cells.
[14] abbreviates: concentration-response curve fit parameter.

As usually defined, the Kd is the concentration at which binding is half-saturated. Higher therefore signals a looser complex.

triple-mutant EGFR (L858R/T790M/C797S), sequence (P00533 25-1210 T790M/C797S/L858R): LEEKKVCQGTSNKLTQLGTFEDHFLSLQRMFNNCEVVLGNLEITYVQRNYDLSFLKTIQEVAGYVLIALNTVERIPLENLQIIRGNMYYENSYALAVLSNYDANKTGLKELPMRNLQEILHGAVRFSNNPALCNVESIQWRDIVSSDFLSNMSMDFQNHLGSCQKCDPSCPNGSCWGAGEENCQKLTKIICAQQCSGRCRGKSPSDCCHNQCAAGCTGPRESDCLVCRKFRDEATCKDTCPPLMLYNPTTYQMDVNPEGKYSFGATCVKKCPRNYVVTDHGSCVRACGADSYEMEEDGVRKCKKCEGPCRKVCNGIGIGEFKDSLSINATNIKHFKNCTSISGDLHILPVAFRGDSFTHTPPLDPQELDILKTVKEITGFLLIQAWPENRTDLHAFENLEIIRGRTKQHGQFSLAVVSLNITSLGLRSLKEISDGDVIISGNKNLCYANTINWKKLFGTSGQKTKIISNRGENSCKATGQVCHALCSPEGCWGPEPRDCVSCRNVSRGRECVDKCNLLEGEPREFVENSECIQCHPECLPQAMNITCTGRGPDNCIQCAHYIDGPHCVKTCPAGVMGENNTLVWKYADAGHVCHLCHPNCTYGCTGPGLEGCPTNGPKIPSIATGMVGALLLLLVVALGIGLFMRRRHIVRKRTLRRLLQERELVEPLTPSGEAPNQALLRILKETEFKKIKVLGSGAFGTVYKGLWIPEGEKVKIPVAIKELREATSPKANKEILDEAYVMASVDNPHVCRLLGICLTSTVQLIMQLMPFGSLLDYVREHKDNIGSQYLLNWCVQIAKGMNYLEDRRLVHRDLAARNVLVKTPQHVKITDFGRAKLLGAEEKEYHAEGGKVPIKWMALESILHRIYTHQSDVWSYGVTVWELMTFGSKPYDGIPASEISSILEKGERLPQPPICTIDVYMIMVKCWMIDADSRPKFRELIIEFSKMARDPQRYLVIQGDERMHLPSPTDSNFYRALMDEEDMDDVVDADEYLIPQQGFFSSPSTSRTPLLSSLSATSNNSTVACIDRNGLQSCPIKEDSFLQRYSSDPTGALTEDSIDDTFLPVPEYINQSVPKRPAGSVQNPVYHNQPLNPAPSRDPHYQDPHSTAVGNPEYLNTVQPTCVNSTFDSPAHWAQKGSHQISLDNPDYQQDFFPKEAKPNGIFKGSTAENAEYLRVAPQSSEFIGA

As for `CCN(CC)c1ccc(/C=C2/C(=O)NC(=O)N(c3ccc(Cl)cc3)C2=O)c(O)c1` [L-1], the “LSD1/EGFR relevant downstream signaling pathways (Western blot)” value in data set [1] is on record as “could inhibit”. Besides, at LSD1 [2], the “Binding to LSD1 by SPR (in words)” value is “specific and reversible binding”; the Kd stood at 18.2 µM. Besides, in [3], the tumor growth rate result is given as “slower growth rate”, the tumor size entry is “smaller tumor size” and the tumor weight entry is “lighter tumor weight”. In addition, the “cell proliferation, H1975” value in data set [4] (setting [12]) is “significantly inhibited”. In addition, the “efficacy after LSD1 knockdown, H1975” value in data set [4] (setting [13]) is on record as “less effective”. In addition, the “body weight of nude mice” value in data set [5] is reported as “did not affect”. Besides, the “level of Ki67 (IHC)” value in the data set with Ki67 was “significantly suppressed”. Also, in data set [6], the IC50 amounted to 5.01 µM. In addition, the “cell proliferation, H1299” value in data set [7] is “not have effect”. On LSD1 [8], this compound displayed an IC50 of 6.24 µM and a Relative potency % of 3.7%. For the same compound, at LSD1 [8] (setting [14]), the Bottom is reported as −4.65, the Hillslope was 1.26 and the Top is reported as 51.52. Further, the “cell proliferation, H460” value in data set [9] is “not have effect”. In data set [10], the IC50 came to 5.58 µM. The “cell proliferation, PC9” value in data set [11] (setting [12]) is reported as “significantly inhibited”. The “efficacy after LSD1 knockdown, PC9” value in data set [11] (setting [13]) is “less effective”.

Turning to `C=CC(=O)Nc1cc(Nc2nccc(-c3cn(C)c4ccccc34)n2)c(OC)cc1N(C)CCN(C)C` [Osimertinib], the “effect on EGFR wild-type cells” value in the data set on EGFR wild-type cells is “less pronounced impact”. The “effect on EGFR-mutant cells” value in the data set with EGFR-mutant NSCLC cells is on record as “significant inhibitory effect”.

These data come from paper PMC11950244, “Discovery of novel dual-target inhibitors of LSD1/EGFR for non-small cell lung cancer therapy” (Acta Pharmacologica Sinica, 2025).
